Source: patent US3960845A, “Process for preparing 7β-acylamino-7α-alkoxycephalosporins or 6β-acylamino-6α-alkoxypenicillins” (Sankyo Company Limited, priority 1974, dated 1976)
Converted amounts (≈) assume the structure as drawn. Read-outs that look alike come from different tables or passages of the source.

Experiments:
Assay type in all cases: cell-based
[1] = system: Staphylococcus aureus 209p; assay: Minimal inhibitory concentration; details: I A: Staphylococcus aureus 209p; read-out: Minimal inhibitory concentration
From the text: (§1) Minimal inhibitory concentrations of various microorganisms mcg/ml
1 A Staphylococcus aureus 209p

[2] = system: Staphylococcus aureus (CP and PC resistant); assay: Minimal inhibitory concentration; details: I B: Staphylococcus aureus (CP and PC resistant)
From the text: as §1
1 B Staphylococcus aureus

E. coli NIHJ = assay: Minimal inhibitory concentration; details: Escherichia coli; II A: E. coli NIHJ
From the text: as §1

Proteus vulgaris = assay: Minimal inhibitory concentration; details: V: Proteus vulgaris; read-out: Minimal inhibitory concentration
From the text: as §1

[3] = system: E. coli 609 (CER resistant); assay: Minimal inhibitory concentration; details: Escherichia coli; II B: E. coli 609 (CER resistant); read-out: Minimal inhibitory concentration
From the text: as §1
II B E. coli 609 (CER resistant)

[4] = system: Shigella flexneri Komagome; assay: Minimal inhibitory concentration; details: read-out: Minimal inhibitory concentration
From the text: as §1
III Shigella flexneri Komagome

Klebsiella neumoniae 806 = assay: Minimal inhibitory concentration; details: IV A: Klebsiella neumoniae 806; read-out: Minimal inhibitory concentration
From the text: as §1
IV A Klebsiella neumoniae 806

[5] = system: Klebsiella neumoniae 846 (CER resistant); assay: Minimal inhibitory concentration; details: IV B: Klebsiella neumoniae 846 (CER resistant)
From the text: as §1
IV B Klebsiella neumoniae 846 (CER resistant)

[6] = system: Salmonella enteritidis Gaertner; assay: Minimal inhibitory concentration; details: Salmonella enterica; VI: Salmonella enteritidis Gaertner; read-out: Minimal inhibitory concentration
From the text: as §1
VI Salmonella enteritidis Gaertner

[7] = system: broad pathogenic microorganisms; assay: antimicrobial activity; details: result in words
[8] = III: Shigella flexneri Komagome

| SMILES | MIC [1] [µg/mL] | MIC [2] [µg/mL] | MIC (E. coli NIHJ) [µg/mL] | MIC (Proteus vulgaris) [µg/mL] | MIC [3] [µg/mL] | MIC [4, 8] [µg/mL] | MIC (Klebsiella neumoniae 806) [µg/mL] | MIC [5] [µg/mL] | MIC [6] [µg/mL] | antimicrobial activity against broad pathogenic microorganisms [7] | MIC ([4]; Shigella flexneri) [µg/mL] |
| --- | --- | --- | --- | --- | --- | --- | --- | --- | --- | --- | --- |
| CO[C@@]1(NC(=O)CSCN=[N+]=[N-])C(=O)N2C(C(=O)O)=C(COC(C)=O)CS[C@@H]21 [7β-azidomethylthioacetamido-7α-methoxy-3-acetoxymethyl-3-cephem-4-carboxylic acid] | 0.4 (≈ 0.927 µM) | 0.8 (≈ 1.85 µM) | 6.2 (≈ 14.4 µM) | 3.1 (≈ 7.19 µM) | 6.2 (≈ 14.4 µM) | 6.2 (≈ 14.4 µM) | 6.2 (≈ 14.4 µM) | > 200 | 1.5 (≈ 3.48 µM) | excellent antimicrobial activity |  |
| CO[C@@]1(NC(=O)CSCC#N)C(=O)N2C(C(=O)O)=C(COC(C)=O)CS[C@@H]21 [7β-cyanomethylthioacetamido-7α-methoxy-3-acetoxymethyl-3-cephem-4-carboxylic acid] | 0.2 (≈ 0.481 µM) | 0.8 (≈ 1.93 µM) | 1.5 (≈ 3.61 µM) | 6.2 (≈ 14.9 µM) | 1.5 (≈ 3.61 µM) | 3.1 (≈ 7.46 µM) | 1.5 (≈ 3.61 µM) | > 400 | 0.8 (≈ 1.93 µM) | excellent antimicrobial activity |  |
| CO[C@@]1(NC(=O)CSCC#N)C(=O)N2C(C(=O)O)=C(COC(N)=O)CS[C@@H]21 [7β-cyanomethylthioacetamido-7α-methoxy-3-carbamoyloxymethyl-3-cephem-4-carboxylic acid] | 0.8 (≈ 1.92 µM) | 1.5 (≈ 3.6 µM) | 1.5 (≈ 3.6 µM) | 6.2 (≈ 14.9 µM) | 0.8 (≈ 1.92 µM) | 3.1 (≈ 7.44 µM) | 0.4 (≈ 0.961 µM) | > 400 | 0.4 (≈ 0.961 µM) | excellent antimicrobial activity |  |
| CO[C@@]1(NC(=O)CS(C)(=O)=O)C(=O)N2C(C(=O)O)=C(CSc3nnnn3C)CS[C@@H]21 [7β-methylsulfonylacetamido-7α-methoxy-3-(1-methyl-1H-tetrazole-5-yl)thiomethyl-3-cephem-4-carboxylic acid] | 0.8 (≈ 1.67 µM) | 3.1 (≈ 6.48 µM) | 1.5 (≈ 3.13 µM) | 12.5 (≈ 26.1 µM) | 1.5 (≈ 3.13 µM) | 1.5 (≈ 3.13 µM) | 0.8 (≈ 1.67 µM) | 400 (≈ 836 µM) | 0.4 (≈ 0.836 µM) | excellent antimicrobial activity |  |
| C#CCSCC(=O)N[C@]1(OC)C(=O)N2C(C(=O)O)=C(CSc3nnnn3C)CS[C@@H]21 [7β-propargylthioacetamido-7α-methoxy-3-(1-methyl-1H-tetrazol-5-yl)thiomethyl-3-cephem-4-carboxylic acid] | 0.2 (≈ 0.425 µM) | 0.8 (≈ 1.7 µM) | 3.1 (≈ 6.59 µM) | 3.1 (≈ 6.59 µM) | 3.1 (≈ 6.59 µM) | 3.1 (≈ 6.59 µM) | 3.1 (≈ 6.59 µM) | 400 (≈ 850 µM) | 0.8 (≈ 1.7 µM) | excellent antimicrobial activity |  |
| C#CCSCC(=O)N[C@]1(OC)C(=O)N2C(C(=O)O)=C(COC(C)=O)CS[C@@H]21 [7β-propargylthioacetamido-7α-methoxy-3-acetoxymethyl-3-cephem-4-carboxylic acid] | 0.8 (≈ 1.93 µM) | 3.1 (≈ 7.48 µM) | 3.1 (≈ 7.48 µM) | 6.2 (≈ 15 µM) | 6.2 (≈ 15 µM) | 6.2 (≈ 15 µM) | 6.2 (≈ 15 µM) | > 400 | 1.5 (≈ 3.62 µM) | excellent antimicrobial activity |  |
| C#CCSCC(=O)N[C@]1(OC)C(=O)N2C(C(=O)O)=C(COC(N)=O)CS[C@@H]21 [7β-propargylthioacetamido-7α-methoxy-3-carbamoyloxymethyl-3-cephem-4-carboxylic acid] | 0.8 (≈ 1.93 µM) | 1.5 (≈ 3.61 µM) | 3.1 (≈ 7.46 µM) | 6.2 (≈ 14.9 µM) | 3.1 (≈ 7.46 µM) |  | 3.1 (≈ 7.46 µM) | > 400 | 1.5 (≈ 3.61 µM) | excellent antimicrobial activity | 6.2 (≈ 14.9 µM) |
